Results taken from patent US10849878B2 (OBSHCHESTVO S OGRANICHENNOY OTVETSTVENNOSTYU “NORMOFARM”, priority 2015, dated 2020).

Legend:
rats [1] = conditions: comparison salts; cited from earlier work
rats [2] = assay: Porsolt helplessness test; assay type: in vivo, rat
[3] = in normal settings; cited from earlier work
[4] = 7 days after the dosing, LiAsc, LiCa 5 mg/kg, phenazepam 0.25 mg
[5] = 7 days after the drug withdrawal, 5 mg/kg
[6] = 28 days after the dosing, LiAsc, LiCa 5 mg/kg, phenazepam 0.25 mg
[7] = 28 days after the drug withdrawal, 5 mg/kg

NCCCC(=O)O [GABA lithium]
LD50, mg/kg in rats (rats [1]): 1800 mg/kg

O=C([O-])c1ccccc1.[Li+] [Lithium benzoate]
LD50, mg/kg in rats (rats [1]): 1200 mg/kg

[Br-].[Li+] [Lithium bromide]
LD50, mg/kg in rats (rats [1]): 2200 mg/kg

O=C([O-])[O-].[Li+].[Li+] [Lithium carbonate]
Adrenalin (rats [2]; [4]): 24.9 ± 9.5 µg/L
Duration of activity (rats [2]; [4]): 100.9 ± 64.9 s
Duration of immobility (rats [2]; [4]): 499.1 ± 53.0 s
Eosinophils (Dunger method) in mm^3 (rats [2]; [4]): 312.6 ± 68.1 in mm^3
Noradrenalin (rats [2]; [4]): 69.3 ± 35.2 µg/L
Number of gastric ulcers (rats [2]; [4]): 5.9 ± 2.1
Adrenalin (rats [2]; [5]): 29.6 ± 13.6 µg/L
Duration of activity (rats [2]; [5]): 91.8 ± 43.9 s
Duration of immobility (rats [2]; [5]): 507.9 ± 101.4 s
Eosinophils (Dunger method) in mm^3 (rats [2]; [5]): 299.3 ± 93.5 in mm^3
Noradrenalin (rats [2]; [5]): 80.6 ± 29.7 µg/L
Number of gastric ulcers (rats [2]; [5]): 9.9 ± 3.7
Adrenalin (rats [2]; [6]): 36.7 ± 9.6 µg/L
Duration of activity (rats [2]; [6]): 90.8 ± 67.3 s
Duration of immobility (rats [2]; [6]): 508.9 ± 107.2 s
Eosinophils (Dunger method) in mm^3 (rats [2]; [6]): 301.8 ± 102.3 in mm^3
Noradrenalin (rats [2]; [6]): 76.83 ± 30.2 µg/L
Number of gastric ulcers (rats [2]; [6]): 7.3 ± 2.6
Adrenalin (rats [2]; [7]): 37.1 ± 14.7 µg/L
Duration of activity (rats [2]; [7]): 93.8 ± 32.7 s
Duration of immobility (rats [2]; [7]): 504.4 ± 173.4 s
Eosinophils (Dunger method) in mm^3 (rats [2]; [7]): 281.2 ± 83.1 in mm^3
Noradrenalin (rats [2]; [7]): 76.34 ± 18.6 µg/L
Number of gastric ulcers (rats [2]; [7]): 10.0 ± 4.8

[Cl-].[Li+] [Lithium chloride]
LD50, mg/kg in rats (rats [1]): 970 mg/kg

[F-].[Li+] [Lithium fluoride]
LD50, mg/kg in rats (rats [1]): 175 mg/kg

CC(O)C(=O)[O-].[Li+] (stereo not drawn) [Lithium lactate]
LD50, mg/kg in rats (rats [1]): 2100 mg/kg

[Li+].[O]=[Ta](=[O])[O-] [Lithium metatantalate]
LD50, mg/kg in rats (rats [1]): 750 mg/kg

O=C([O-])c1cccnc1.[Li+] [Lithium nicotinate]
LD50, mg/kg in rats (rats [1]): 2200 mg/kg

O=C([O-])CCCO.[Li+] [Lithium oxibutirate]
LD50, mg/kg in rats (rats [1]): 2200 mg/kg

O=C([O-])CCC(=O)[O-].[Li+].[Li+] [Lithium succynate]
LD50, mg/kg in rats (rats [1]): 2416 mg/kg

O=C1O[C@H]([C@@H](O)CO)C(O)=C1O [ascorbic acid]
plasma concentration [3]: 10000 to 20000 ng/mL

O=C1CN=C(c2ccccc2Cl)c2cc(Br)ccc2N1 [phenazepam]
Adrenalin (rats [2]; [4]): 6.8 ± 0.65 µg/L
Duration of activity (rats [2]; [4]): 426.7 ± 76.4 s
Duration of immobility (rats [2]; [4]): 173.3 ± 22.1 s
Eosinophils (Dunger method) in mm^3 (rats [2]; [4]): 969.1 ± 42.3 in mm^3
Noradrenalin (rats [2]; [4]): 17.6 ± 1.95 µg/L
Number of gastric ulcers (rats [2]; [4]): 0.4 ± 0.1
Adrenalin (rats [2]; [6]): 6.2 ± 0.57 µg/L
Duration of activity (rats [2]; [6]): 494.8 ± 60.4 s
Duration of immobility (rats [2]; [6]): 105.2 ± 20.1 s
Eosinophils (Dunger method) in mm^3 (rats [2]; [6]): 988.1 ± 42.3 in mm^3
Noradrenalin (rats [2]; [6]): 16.2 ± 1.1 µg/L
Number of gastric ulcers (rats [2]; [6]): 0.1 ± 0.2

Lithium nitrate trihydrate
LD50, mg/kg in rats (rats [1]): 1400 mg/kg
